From publication PMC5024298, “The coiled-coil domain of zebrafish TRPM7 regulates Mg·nucleotide sensitivity” (Scientific Reports, 2016)
“And” between values parts separate entries of the source, which are not always exact repeats. Identical values can stand only once. Like-named read-outs stand apart in the source and are kept apart here. Blank lines part the entries; values can stand above or below the molecule they belong to.

Assays:
[1] = system: zebrafish TRPM7 (drTRPM7) wild type; test: Whole-cell patch-clamp of tetracycline-induced HEK293 T-REx cells overexpressing wild type drTRPM7; assay type: cell-based, zebrafish (Danio rerio); details: for Biophysical characteristic: effect on drTRPM7 (Table 1): heterologous drTRPM7; for effect of extracellular divalent application on monovalent outward currents: 10 mM divalent replacing 10 mM Ca^2+, NMDG external solution; for IC50: 200 s
Description: (§1) HEK293 T-REx cells stably expressing HA-tagged Danio rerio TRPM7 (drTRPM7) wild type or mutants were cultured in DMEM with 10% FBS and 5 μg/ml of blasticidin and 200 μg/ml hygromycin. HEK293 T-REx cells were incubated at 37 °C and 5% CO2. Expression was induced by adding 1 μg/ml tetracycline to the growth media 20 hours before experiments. […] Chicken DT40 wild type and DT40 cells with a TRPM7 […] (DT40 TRPM7-KO) cells were maintained as described before.
(§2) Patch-clamp experiments were performed in the tight-seal whole-cell configuration at room temperature (20–25 °C). Whole-cell currents were recorded with the EPC9 (HEKA, Bellmore, NY) and Patchmaster v2.4 (HEKA). Voltages were corrected for a liquid junction potential of 10 mV. The patch pipettes were pulled from borosilicate glass (Sutter Instruments, USA) with resistances of 2.5–3.5 MΩ when filled with internal solution. The voltage ramp protocol ranged from −100 mV to 100 mV over 50 ms and applied at 0.5 Hz. Current amplitudes were measured at −80 mV and +80 mV. The holding potential was set to 0 mV in all experiments. Currents were filtered at 2.9 kHz and digitized at 10 kHz. Cells were seeded on glass cover slips 1–2 days before the day of the experiment. Cover slips were submerged in the external solution at room temperature (20–25 °C). Cover slips and external solutions were replaced every hour.
The standard external solution contained (in mM): 140 NaCl, 2.8 KCl, 2 MgCl2, 11 glucose, 10 HEPES, and 1 CaCl2. The divalent profile experiments were performed using a modified external solution that contained (in mM): 140 N-methyl-D-glucamine (NMDG), 11 glucose, 10 HEPES and 10 CaCl2. For application, 10 mM CaCl2 was replaced with 10 mM of the respective divalent under study. The standard internal solution contained (in mM): 140 Cs-glutamate, 8 NaCl, 10 HEPES, and 10 Cs-BAPTA. pH was adjusted to 7.2 and osmolarity was kept between 290–330 mOsm. The solutions for pH below 6.0 contained (in mM): 140 NaCl, 2.8 KCl, 2 MgCl2, 11 glucose, 10 MES, and 1 CaCl2. For the Mg·ATP dose-response analysis, the internal solution contained (in mM): 120 Cs-glutamate, 8 NaCl, 10 HEPES, 10 Cs-BAPTA. Na·ATP and MgCl2 was used to achieve appropriate concentrations of free intracellular Mg^2+ and Mg·ATP as calculated using WebmaxC Standard (http://www.stanford.edu/~cpatton/webmaxcS.htm).
Statistical analysis was performed using Fitmaster (version 2.69; HEKA, Germany) and Igor software (version 6.34; WaveMetrics, USA). The p-values were calculated using Microsoft Excel version 14.1.2 using the two-tailed paired Student’s T-test. Data were normalized to cell size and expressed as current density (pA/pF), or normalized to the time point right before application (I/I[time]s). […] Dose-response fits were assessed using the fit function f(x) = ([Maximum current] *(1/(1 + ([Estimated IC50]/x)^[Hill coefficient])). The IC50 or EC50 values calculated with the dose-response curve function were reported with ± standard deviation (S.D.).
To study channel biophysics, HA-tagged wild type zebrafish TRPM7 (drTRPM7) was cloned and stably expressed in HEK293 T-REx cells under tetracycline-inducible promotor (see methods; ref. [3]). […] Both clones were also tested for drTRPM7 expression using the whole-cell patch-clamp technique.

[2] = system: endogenous TRPM7-like currents in ZFL cells; test: Whole-cell patch-clamp of endogenous TRPM7-like currents in zebrafish liver cell line ZFL; assay type: cell-based
Description: as §1, §2

Mammalian TRPM7 = details: cited from earlier work
Human TRPM6 = details: cited from earlier work
human TRPM7 (hTRPM7) = details: cited from earlier work
drTRPM7-1478 = test: Whole-cell patch-clamp of HEK293 T-REx cells overexpressing truncation mutant drTRPM7-1478; assay type: cell-based, zebrafish (Danio rerio); details: +80 mV, 200 s; Hill = 2, 1.5 (Fig. 6 legend); read-out: IC50 of internal Mg^2+
Description: Patch-clamp experiments were performed in the tight-seal whole-cell configuration at room temperature (20–25 °C). Whole-cell currents were recorded with the EPC9 (HEKA, Bellmore, NY) and Patchmaster v2.4 (HEKA). Voltages were corrected for a liquid junction potential of 10 mV. […] Current amplitudes were measured at −80 mV and +80 mV. […]
(§3) The standard external solution contained (in mM): 140 NaCl, 2.8 KCl, 2 MgCl2, 11 glucose, 10 HEPES, and 1 CaCl2. […] Na·ATP and MgCl2 was used to achieve appropriate concentrations of free intracellular Mg^2+ and Mg·ATP as calculated using WebmaxC Standard (http://www.stanford.edu/~cpatton/webmaxcS.htm).

drTRPM7-1258 = test: Whole-cell patch-clamp of HEK293 T-REx cells overexpressing truncation mutant drTRPM7-1258; assay type: cell-based, zebrafish (Danio rerio)
Description: (§4) Patch-clamp experiments were performed in the tight-seal whole-cell configuration at room temperature (20–25 °C). Whole-cell currents were recorded with the EPC9 (HEKA, Bellmore, NY) and Patchmaster v2.4 (HEKA). Voltages were corrected for a liquid junction potential of 10 mV. The patch pipettes were pulled from borosilicate glass (Sutter Instruments, USA) with resistances of 2.5–3.5 MΩ when filled with internal solution. The voltage ramp protocol ranged from −100 mV to 100 mV over 50 ms and applied at 0.5 Hz. Current amplitudes were measured at −80 mV and +80 mV. The holding potential was set to 0 mV in all experiments. Currents were filtered at 2.9 kHz and digitized at 10 kHz. Cells were seeded on glass cover slips 1–2 days before the day of the experiment. […]
as §3

drTRPM7-1178 = test: Whole-cell patch-clamp of HEK293 T-REx cells overexpressing truncation mutant drTRPM7-1178; assay type: cell-based, zebrafish (Danio rerio)
Description: as §4, §3

[3] = 1 mM intracellular Mg·ATP, 250 μM free Mg^2+

SMILES: NCCOB(c1ccccc1)c1ccccc1 [2-APB, 2-aminoethyl diphenylborinate, reference compound]
effect of 2-APB on drTRPM7 currents ([1]; concentrations of 300 μM and above): greatly enhanced | Biophysical characteristic: effect on drTRPM7 (Table 1) [1]: Potentiation | effect of 2-APB on drTRPM7 currents ([1]; lower concentrations (30 μM and 100 μM)): small but statistically not significant inhibitory effect | effect of 2-APB on drTRPM7 currents ([1]; various concentrations, up to 500 μM, external application): facilitated rather than inhibited | facilitation of inward and outward drTRPM7-like currents ([2]; 500 μM 2-APB applied at 400 s): 50% | effect of 2-APB on mammalian TRPM7 (Mammalian TRPM7; Table 1): Inhibition[12] | effect of 2-APB on human TRPM6 (Human TRPM6; Table 1): Potentiation[12] | effect on human TRPM6 currents (Human TRPM6): enhances | effect of 2-APB on hTRPM7 currents (human TRPM7 (hTRPM7)): inhibits

IC50 (drTRPM7-1478): 450 ± 0.55 µM | IC50 (drTRPM7-1258; +80 mV, 200 s, Hill = 2, read-out: IC50 of internal Mg^2+): 250 ± 0.52 µM | IC50 (drTRPM7-1178; +80 mV, 200 s, Hill = 3, read-out: IC50 of internal Mg^2+): 840 ± 158 µM
SMILES: [Mg+2] [Mg^2+, magnesium]
effect of extracellular divalent application on monovalent outward currents ([1]; +80 mV): almost completely suppressed | IC50 ([1]; current at +80 mV, Hill coefficient 1, read-out: IC50 of intracellular free Mg^2+ on drTRPM7 currents): 778 µM | effect of intracellular free Mg^2+ on drTRPM7-like current development ([2]; 3.2 mM free Mg^2+ in pipette solution): completely suppressed | IC50 (Mammalian TRPM7; Table 1, read-out: IC50 of Mg^2+ on mammalian TRPM7): 720 µM | IC50 (Mammalian TRPM7; read-out: IC50 of intracellular Mg^2+ on heterologous and/or native mouse and human TRPM7): ~750 µM | IC50 (Human TRPM6; Table 1, read-out: IC50 of Mg^2+ on human TRPM6): 29 µM

SMILES: Nc1ncnc2c1ncn2[C@@H]1O[C@H](COP(=O)(O)OP(=O)([O-])OP(=O)([O-])O)[C@@H](O)[C@H]1O.[Mg+2] [Mg·ATP, Mg·adenosine triphosphate]
IC50 ([1]; internal free Mg^2+ 250 μM, +80 mV, Hill coefficient 1, read-out: IC50 of intracellular Mg·ATP on drTRPM7 currents): 1160 µM and 1200 µM | IC50 ([1]; internal free Mg^2+ 250 μM, +80 mV, Hill coefficient set to 1, read-out: IC50 of intracellular Mg·ATP on drTRPM7 currents (Fig. 1E legend)): 1160 ± 700 µM | effect of Mg·ATP on drTRPM7-1258 currents (drTRPM7-1258; [3]): fully inhibited | sensitivity to intracellular Mg·ATP of drTRPM7-1258 compared to drTRPM7-1478 and wild type (drTRPM7-1258; ratio of IC50 values): about 4 fold | effect of Mg·ATP on drTRPM7-1178 currents (drTRPM7-1178; [3]): did not seem to have any effect | sensitivity of drTRPM7-1178 currents to intracellular Mg·ATP (drTRPM7-1178; up to 6 mM Mg·ATP, 250 μM free Mg^2+): completely lost any sensitivity | IC50 (Mammalian TRPM7; Table 1, read-out: IC50 of Mg·ATP on mammalian TRPM7): 2000 µM | effect on human TRPM6 currents (Human TRPM6): No effect[14]

SMILES: C=C1CC/C=C(\C)CC[C@@H]2C([C@H](C/C=C(\C)COC(C)=O)OC(C)=O)=CO[C@H](OC(C)=O)[C@@H]12 [Waixenicin A, reference compound]
effect of waixenicin A on drTRPM7 currents ([1]; 10 μM waixenicin A, 410 μM internal free Mg / 780 μM free Mg^2+ (Fig. 4 legend)): no effect | Biophysical characteristic: effect on drTRPM7 (Table 1) [1]: No effect | effect of waixenicin A on mammalian TRPM7 (Mammalian TRPM7; Table 1): Inhibition[13] | effect on human TRPM6 currents (Human TRPM6): No effect[14] | effect on human TRPM6 currents (Human TRPM6; listed as waixenicin A): no significant effect

SMILES: [Ba+2] [barium]
effect of extracellular divalent application on monovalent outward currents ([1]; +80 mV): facilitated outward currents

SMILES: [Cd] [cadmium]
effect of extracellular divalent application on monovalent outward currents ([1]; +80 mV): facilitated outward currents

SMILES: [Co+2] [cobalt]
effect of extracellular divalent application on monovalent outward currents ([1]; +80 mV): almost completely suppressed

SMILES: [Ni+2] [nickel]
effect of extracellular divalent application on monovalent outward currents ([1]; +80 mV): almost completely suppressed

SMILES: [Sr+2] [strontium]
effect of extracellular divalent application on monovalent outward currents ([1]; +80 mV): facilitated outward currents
